This passage reports IC20 and IC50 results from publication PMC6539525, “Design, Synthesis, and Mechanism of Dihydroartemisinin–Coumarin Hybrids as Potential Anti-Neuroinflammatory Agents” (Molecules, 2019).

Read-outs that look alike come from different tables or passages of the source.

Data set [1] is described as follows: MTT cytotoxicity in N9 cells. It is filed as cell-based, murine. The note with it: mouse, N9 microglial cells, cytotoxic activity. As for the experimental part: (§1) The anti-neuroinflammatory activity of DCH was evaluated and then the representative compounds were selected for the further study. […] In addition, in order to exclude the death influence, MTT-IC20 of all the compounds were measured. […] The exact reason was still unclear, but we supposed that it might be related to the homeostasis of cells. The tumor cells actually were always in hypoxia condition, in which DCH could promote the cytotoxic activity against tumor cells. In brief, DCH could reduce the release of NO caused by LPS-induced microglial cells.
(§2) When the adherent cells reached 80% confluence, the culture medium was discarded. The cells were digested by trypsin and collected after centrifugation. The fresh culture medium was gently blown into it to form single-cell suspension. Cell suspension will be diluted to 1.5–3 × 10^4 cells/mL. Each hole of 96-well plates was added 100 μL cell suspension and incubated for 24 h (5% CO2; 37 °C). Then the holes were added different concentrations of tested compounds. The early screening concentration is set to 100 μM, 50 μM, 25 μM, 12.5 μM, and 6.25 μM. Three replicates were made for each concentration of the tested compounds. After the cells were grown for 96h, 20 μL MTT (5 mg/mL) was added to each well and incubated for 4 h. The medium was discarded and each well was added 100 μL DMSO to dissolve the formazan blue. Absorbance was measured at 570 nm with a microplate reader (Synergy-HT, BioTek Instruments, Winooski, VT, USA).
(§3) N9 cells, which were in the logarithmic phase, were incubated for 24 h by adherent culture. Subsequently, the medium was changed to new one without serum. The cells were treated with different concentration of tested compounds. After specific time in the LPS condition, the supernatants were collected and analyzed.

A further data set deals with A549 cells. Description: MTT cytotoxicity in A549 cells. In kind it is cell-based. The conditions noted are these: Homo sapiens. As for the experimental part: (§4) As the anti-neuroinflammatory agents for cancer patients, all newly synthesized compounds were evaluated in vitro for antitumor activity against human breast cancer cell line MDA-MB-231, colorectal cancer cells HT-29 and HCT-116, and lung cancer cell line A549 by using the standard MTT method, respectively. Doxorubicin (DOX) and DHA were used as the reference standard. Additionally, owing to the rapid proliferation, the tumor cells actually was always in hypoxia condition. Therefore, the in vitro cytotoxicity was evaluated in two different conditions (hypoxia and normoxia).
(§5) After recovery, the cells were cultured in 96-well plates for 24 h at 37 °C in a humidified atmosphere with 95% air and 5% CO2. After treated with different tested compounds, the hypoxia groups were placed in a sealed hypoxia incubator chamber (Stemcell Technologies, Inc., Vancouver, BC, Canada) filled with 5% CO2 and 95% N2 for 24 h, and then transferred to the incubator chamber filled with air for 72 h. On the contrary, the normoxia groups were cultured under air condition for 96h.
(§6) Cancer cells HT-29 (Human Colorectal Adenocarcinoma cell line), MDA-MB-231 (Human Breast Cancer cell line), HCT-116 (Human Colorectal Carcinoma cell line), and A549 (Human Lung Adenocarcinomic cell line) were from ATCC.
as §2
(§7) Hypoxia condition: The cells were treated with different concentration of tested compounds, placed in hypoxia chamber (Catalog Number 27310, Stemcell Technologies, Inc., Vancouver, BC, Canada), and incubated for 24 h ([…]; 37 °C). Then the cells were placed in normoxia condition (5% CO2; 37 °C) and incubated for 72 h.

Another data set relates to HCT-116 cells. Description: MTT cytotoxicity in HCT-116 cells. The conditions noted are these: Homo sapiens. In kind it is cell-based. As to the method:
as §4, §5, §6, §2, §7

The next data set has as its system MDA-MB-231 cells. As to the kind of experiment: MTT cytotoxicity in MDA-MB-231 cells. It is filed as cell-based. The conditions noted are these: Homo sapiens. As for the experimental part:
as §4, §5, §6, §2, §7

In data set [2] the test system is NO release of LPS-induced microglial N9 cells. As to the kind of experiment: Inhibition of NO release in LPS-induced N9 cells (Griess). In kind it is cell-based, murine. The conditions noted are these: Mus musculus, 1 μg/mL LPS for 48 h, NO level in medium. As to the method: as §1, §3
The nitrite levels in medium were determined by Griess reaction. The absorbance was measured at 540 nm using a microplate reader.

The subject of a further data set is HT-29 cells. As to the kind of experiment: MTT cytotoxicity in HT-29 cells. It is filed as cell-based, Human. The note with it: Homo sapiens, MTT. As for the experimental part:
as §4
After recovery, the cells were cultured in 96-well plates for 24 h at 37 °C in a humidified atmosphere with 95% air and 5% CO2. After treated with different tested compounds, the hypoxia groups were placed in a sealed hypoxia incubator chamber (Stemcell Technologies, Inc., Vancouver, BC, Canada) filled with 5% CO2 and 95% N2 for 24 h, and then transferred to the incubator chamber filled with air for 72 h. […]
as §6
as §2, with “After the cells were grown for 96h, 20 μL MTT (5 mg/mL) was added to each well and incubated for 4 h.” left out, “USA). […]” for “USA).”

[3] abbreviates: A549, hypoxia 24 h then normoxia 72 h, read-out: IC50 A549 Hypoxia.
The mark [4] stands for this setting: A549, normoxia 96 h, read-out: IC50 A549 Normoxia.
Setting [5] is: HCT-116, hypoxia 24 h then normoxia 72 h, read-out: IC50 HCT-116 Hypoxia.
[6] abbreviates: HCT-116, normoxia 96 h, read-out: IC50 HCT-116 Normoxia.
Where [7] appears, read: MDA-MB-231, hypoxia 24 h then normoxia 72 h, read-out: IC50 MDA-MB-231 Hypoxia.
The mark [8] stands for this setting: MDA-MB-231, normoxia 96 h, read-out: IC50 MDA-MB-231 Normoxia.
The mark [9] stands for this setting: HT-29, hypoxia 24 h then normoxia 72 h, read-out: IC50 HT-29 Hypoxia.
Where [10] appears, read: HT-29, normoxia 96 h, read-out: IC50 HT-29 Normoxia.

In the case of `C[C@H]1[C@@H](OCc2cn(Cc3cc(=O)oc4cc(O)ccc34)nn2)O[C@@H]2O[C@@]3(C)CC[C@H]4[C@H](C)CC[C@@H]1[C@@]24OO3` [3f, 7-hydroxy-4-((4-((10S)-dihydroartemisininoxy)methyl-1H-1,2,3-triazol-1-yl)-methyl)-2H-1-chromen-2-one], in data set [1], the 20% effect concentration (IC20) was over 10 µM. In addition, the IC50 in the data set on A549 cells (setting [3]) was 98 µM; in the data set with A549 cells (setting [4]) it was over 100 µM; in the data set on HCT-116 cells (setting [5]) it was 67.7 µM; in the data set with HCT-116 cells (setting [6]), over 100 µM; with MDA-MB-231 cells (setting [7]), 63.1 µM; in the data set on MDA-MB-231 cells (setting [8]) it was over 100 µM. Besides, the IC50 in data set [2] was 0.37 µM; with HT-29 cells (setting [9]) it was 15.5 µM; in the data set on HT-29 cells (setting [10]) it was 37.8 µM.

On to `Cc1cc(C)c2c(Cn3cc(CO[C@H]4O[C@@H]5O[C@@]6(C)CC[C@H]7[C@H](C)CC[C@@H]([C@H]4C)[C@@]57OO6)nn3)cc(=O)oc2c1` [3g, 5,7-dimethyl-4-((4-((10S)-dihydroartemisininoxy)methyl-1H-1,2,3-triazol-1-yl)-methyl)-2H-1-chromen-2-one], for which, in data set [1], the IC20 was over 10 µM. In addition, the 50% inhibitory concentration (IC50) in the data set on A549 cells (setting [3]), in the data set on A549 cells (setting [4]), in the data set on HCT-116 cells (setting [5]), in the data set on HCT-116 cells (setting [6]), in the data set on MDA-MB-231 cells (setting [7]) and in the data set on MDA-MB-231 cells (setting [8]) was over 100 µM each time. The IC50 is over 10 µM in data set [2], 15.9 µM in the data set with HT-29 cells (setting [9]) and 23.9 µM with HT-29 cells (setting [10]).

Take `Cc1ccc2c(Cn3cc(CO[C@H]4O[C@@H]5O[C@@]6(C)CC[C@H]7[C@H](C)CC[C@@H]([C@H]4C)[C@@]57OO6)nn3)cc(=O)oc2c1` [3h, 7-methyl-4-((4-((10S)-dihydroartemisininoxy)methyl-1H-1,2,3-triazol-1-yl)-methyl)-2H-1-chromen-2-one]: the IC20 in data set [1] is over 10 µM. In addition, the IC50 with A549 cells (setting [3]), with A549 cells (setting [4]), in the data set on HCT-116 cells (setting [5]), in the data set with HCT-116 cells (setting [6]), with MDA-MB-231 cells (setting [7]) and in the data set on MDA-MB-231 cells (setting [8]) was over 100 µM throughout. The values for the IC50 (in data set [2]; in the data set with HT-29 cells (setting [9]); in the data set with HT-29 cells (setting [10])) were over 10 µM, 32 µM and over 100 µM, respectively.

Take `Cc1ccc2oc(=O)cc(Cn3cc(CO[C@H]4O[C@@H]5O[C@@]6(C)CC[C@H]7[C@H](C)CC[C@@H]([C@H]4C)[C@@]57OO6)nn3)c2c1` [3i, 6-methyl-4-((4-((10S)-dihydroartemisininoxy)methyl-1H-1,2,3-triazol-1-yl)-methyl)-2H-1-chromen-2-one]: the concentration for an effect of 20% (IC20) in data set [1] is over 10 µM. For the same compound, the IC50 with A549 cells (setting [3]) is 62.3 µM; with A549 cells (setting [4]), over 100 µM; with HCT-116 cells (setting [5]) it was over 100 µM; in the data set on HCT-116 cells (setting [6]) it was 65 µM; in the data set with MDA-MB-231 cells (setting [7]), 22.8 µM; in the data set with MDA-MB-231 cells (setting [8]) it was over 100 µM. Besides, the IC50 came out at 0.72 µM in data set [2], 8.57 µM in the data set with HT-29 cells (setting [9]) and 16.4 µM with HT-29 cells (setting [10]).

Take `C[C@H]1[C@@H](OCCc2cn(Cc3cc(=O)oc4cc(O)ccc34)nn2)O[C@@H]2O[C@@]3(C)CC[C@H]4[C@H](C)CC[C@@H]1[C@@]24OO3` [4f, 7-hydroxy-4-((4-(2-((10S)-dihydroartemisininoxy)ethyl)-1H-1,2,3-triazol-1-yl)-methyl)-2H-1-chromen-2-one]: in data set [1], the IC20 is over 10 µM. The half-inhibitory concentration (IC50) in the data set on A549 cells (setting [3]) was over 100 µM; in the data set with A549 cells (setting [4]), over 100 µM; in the data set with HCT-116 cells (setting [5]), over 100 µM; in the data set with HCT-116 cells (setting [6]), over 100 µM; with MDA-MB-231 cells (setting [7]) it was 78.8 µM; in the data set on MDA-MB-231 cells (setting [8]), over 100 µM. Further, the concentration for half-maximal inhibition (IC50) in data set [2] is 2.03 µM; with HT-29 cells (setting [9]), 11.3 µM; in the data set on HT-29 cells (setting [10]), 32.3 µM.

For the compound `Cc1cc(C)c2c(Cn3cc(CCO[C@H]4O[C@@H]5O[C@@]6(C)CC[C@H]7[C@H](C)CC[C@@H]([C@H]4C)[C@@]57OO6)nn3)cc(=O)oc2c1` [4g, 5,7-dimethyl-4-((4-(2-((10S)-dihydroartemisininoxy)ethyl)-1H-1,2,3-triazol-1-yl)-methyl)-2H-1-chromen-2-one], in data set [1], the IC20 was over 10 µM. In addition, the IC50 in the data set with A549 cells (setting [3]) is over 100 µM; in the data set with A549 cells (setting [4]), over 100 µM; with HCT-116 cells (setting [5]), 25.7 µM; with HCT-116 cells (setting [6]) it was 34.5 µM; with MDA-MB-231 cells (setting [7]) it was 22.7 µM; in the data set on MDA-MB-231 cells (setting [8]), over 100 µM. Moreover, the IC50 in data set [2] stood at 1.36 µM; in the data set with HT-29 cells (setting [9]), 9.33 µM; in the data set on HT-29 cells (setting [10]), 13.8 µM.

Regarding `Cc1ccc2c(Cn3cc(CCO[C@H]4O[C@@H]5O[C@@]6(C)CC[C@H]7[C@H](C)CC[C@@H]([C@H]4C)[C@@]57OO6)nn3)cc(=O)oc2c1` [4h, 7-methyl-4-((4-(2-((10S)-dihydroartemisininoxy)ethyl)-1H-1,2,3-triazol-1-yl)-methyl)-2H-1-chromen-2-one], the concentration for an effect of 20% (IC20) in data set [1] was over 10 µM. The IC50 in the data set on A549 cells (setting [3]), with A549 cells (setting [4]), with HCT-116 cells (setting [5]), in the data set on HCT-116 cells (setting [6]), in the data set with MDA-MB-231 cells (setting [7]) and in the data set on MDA-MB-231 cells (setting [8]) was over 100 µM throughout. Further, the IC50 in data set [2] was 5.69 µM; with HT-29 cells (setting [9]) it was 56.4 µM; in the data set on HT-29 cells (setting [10]), over 100 µM.

As to `COc1cccc2c1C(=O)c1c(O)c3c(c(O)c1C2=O)C[C@@](O)(C(=O)CO)C[C@@H]3O[C@H]1C[C@H](N)[C@H](O)[C@H](C)O1` [DOX, Doxorubicin, reference compound], the concentration for half-maximal inhibition (IC50) in the data set on A549 cells (setting [3]) was over 2 µM; in the data set with A549 cells (setting [4]) it was over 2 µM; in the data set on HCT-116 cells (setting [5]) it was over 2 µM; with HCT-116 cells (setting [6]), 1.29 µM; in the data set on MDA-MB-231 cells (setting [7]), 0.69 µM; in the data set on MDA-MB-231 cells (setting [8]), 1.37 µM. Also, the IC50 in the data set on HT-29 cells (setting [9]) is under 0.1 µM; in the data set on HT-29 cells (setting [10]) it was 0.11 µM.

`CN(C)c1ccc(O)c2c1C[C@H]1C[C@H]3[C@H](N(C)C)C(O)=C(C(N)=O)C(=O)[C@@]3(O)C(O)=C1C2=O` [Minocycline, reference compound]: the IC20 in data set [1] was over 10 µM. In addition, the IC50 in data set [2] was over 10 µM.
